Several values for one entry are separate records, joined by “and”; a condition that tells them apart may be missing. Identical values can stand only once. Like-named read-outs stand apart in the source and are kept apart here.
Assays:
LNCaP-S14 cells [1] = assay: Cell Death Detection ELISA (cytoplasmic histone-associated DNA fragments); format: cell-based, human
Description: Apoptosis was measured using the Cell Death Detection ELISA (Roche, Basel, Switzerland) following the manufacturer's instructions. Briefly, LNCaP-S14 cells (0.1 × 10^6) were seeded in 12-well plates and treated with SMIPs (40 μM) for 24 h. Cells were collected in medium, spun at 1000 rpm, and resuspended in 1 mL PBS at the specified time points (day 1 to day 3). The cell suspension was divided into two parts. The first half was used for determination of cytoplasmic histone-associated DNA fragments (ELISA), the second for protein determination to normalize the ELISA data to the amount of input protein.

LNCaP-WT cells = assay: MTT cytotoxicity assay, LNCaP-WT; conditions: Homo sapiens, read-out: IC50 (MTT cytotoxicity)
Description: (§3) LNCaP-S14 (10,000 cells), PC3, DU145 or IMR90 cells (5000 cells) were seeded in 96-well plates and treated with increasing concentrations of the respective SMIPs for 72 h. Cell viability was assessed using the MTT cell proliferation assay (ATCC®, Middlesex, UK) according to the manufacturer's protocol. IC50 was calculated using the BioDataFit 1.02 software http://www.changbioscience.com/stat/ec50.html.

[2] = tested on: p21 protein levels in LNCaP-S14 cells; assay: Immunoblot quantification of p21, LNCaP-S14; format: cell-based, human
Description: (§1) Total cell lysate from cells treated with vehicle (DMSO) or compounds were obtained by incubating cells in lysis buffer (25 mM Tris-HCl pH 7.4, 150 mM NaCl, 0.5% Triton X-100, protease inhibitors) for 15 min at 4°C. The supernatant was collected by centrifugation and the amount of protein was determined with a Bio-Rad protein assay (Bio-Rad) using BSA as standard. Equal amounts of protein were subjected to SDS-PAGE (4%-20% gels, Invitrogen) and transferred to PVDF membranes. The membranes were blocked with TBST (50 mM Tris-HCl pH 7.5, 150 mM NaCl, 0.05% Tween-20) containing 5% non-fat dry milk or bovine serum albumin (BSA) for 1 h at room temperature, followed by incubation in primary antibodies 4°C overnight. Membranes were washed and incubated with secondary antibodies conjugated to HRP (Jackson ImmunoResearch Laboratories) for 1 h at room temperature. Signals were visualized using the ECL Western Blotting Substrate (Pierce Biotechnology, IL, USA) according to the manufacturer's instructions. Membranes were stripped using Restore™ Western Blot Stripping Buffer (Pierce Biotechnology). Films were scanned and quantification of the bands was performed using Image J software http://rsbweb.nih.gov/ij/.

[3] = tested on: p21 protein levels in LNCaP cells; assay: Immunoblot quantification of p21, LNCaP; format: cell-based, human
Description: as §1

[4] = tested on: p27 protein levels in LNCaP cells; assay: Immunoblot quantification of p27, LNCaP; format: cell-based, human
Description: as §1

DU145 cells = assay: MTT cytotoxicity assay, DU145; conditions: Homo sapiens, read-out: IC50 (MTT cytotoxicity)
Description: as §3

[5] = tested on: p21 protein levels in IMR90 cells; assay: Immunoblot quantification of p21, IMR90; format: cell-based, human
Description: as §1

IMR90 cells = assay: Cell cycle analysis by flow cytometry, IMR90; format: cell-based, human
Description: (§2) Cells were exposed to SMIPs (40 μM) for 24 h and 48 h. Cells were trypsinized, washed with PBS and suspended in 600 μL PBS. Cells were fixed by adding 1.4 mL cold absolute ethanol and kept at -20°C for at least 12 h. After washing once with PBS, the cells were resuspended in 250 μL PBS containing 2.5 μg RNAse A and incubated for 45 min at room temperature. Staining was done by adding 40 μg/mL of propidium iodine followed by incubation for 15 min at room temperature. DNA-bound fluorescence was read at 564 to 606 nm using FACSort and FACSCanto flow cytometers (BD Biosciences) at the Flow Cytometry Facility of the Sanford-Burnham Medical Research Institute. Distribution of cells in the different cell cycle phase was determined with ModFit LT 3.2.1 or FlowJo 8.6 software. Aggregates were excluded from the analysis manually using pulse shape or identified by automated modelling in ModFit LT.

[6] = tested on: p27 protein levels in HeLa cells; assay: Immunoblot quantification of p27, HeLa; format: cell-based, human
Description: as §1

[7] = tested on: p27 protein levels in LNCaP-S14 cells; assay: Immunoblot quantification of p27, LNCaP-S14; format: cell-based, human
Description: as §1

LNCaP cells = assay: Cell cycle analysis by flow cytometry, LNCaP; format: cell-based, human
Description: as §2

PC3 cells [8] = assay: MTT cytotoxicity assay, PC3; conditions: Homo sapiens, read-out: IC50 (MTT cytotoxicity)
Description: as §3

[9] = tested on: p27 protein levels in DU145 cells; assay: Immunoblot quantification of p27, DU145; format: cell-based, human
Description: as §1

[10] = tested on: p21 protein levels in DU145 cells; assay: Immunoblot quantification of p21, DU145; format: cell-based, human
Description: as §1

PC3 cells [11] = assay: Cell cycle analysis by flow cytometry, PC3; format: cell-based, human
Description: as §2

LNCaP-S14 cells [12] = assay: MTT cytotoxicity assay, LNCaP-S14; conditions: Homo sapiens, 72 h, read-out: IC50 (MTT cytotoxicity)
Description: as §3

[13] = tested on: p27 stability in LNCaP-S14 cells; assay: Protein half-life by cycloheximide chase; format: cell-based, human; conditions: LNCaP-S14, 40 μM SMIPs 18 h, then cycloheximide 100 μg/mL; DMSO ~ 1.29 h
Description: LNCaP-S14 cells were treated with SMIPs (40 μM) for 18 h followed by the addition of 100 μg/mL cycloheximide (CHX). Cell extracts were obtained as described above at different times after CHX addition. Protein lysate was subjected to SDS-PAGE and immunoblotting for p27, p21 and SKP2. Tubulin was used as loading control. Protein half-lives were calculated using a web based calculator http://www.1728.com/halflife.htm.

[14] = tested on: p27 protein levels in PC3 cells; assay: Immunoblot quantification of p27, PC3; format: cell-based, human
Description: as §1

[15] = MTT cytotoxicity assay, IMR90; format: cell-based; conditions: human, IMR90 normal fibroblasts
Description: as §3

LNCaP-S14 cells [16] = assay: Cell cycle analysis by flow cytometry, LNCaP-S14; format: cell-based, human
Description: as §2

[17] = tested on: p21 protein levels in HeLa cells; assay: Immunoblot quantification of p21, HeLa; format: cell-based, human
Description: as §1

[18] = tested on: p21 protein levels in PC3 cells; assay: Immunoblot quantification of p21, PC3; format: cell-based, human
Description: as §1

CC(C)(C)c1cc2cc(NC(=O)c3cccs3)ccc2[nH]1 [SMIP001]
increase in the amount of mono and oligonucleosomes (LNCaP-S14 cells [1]): three- to fivefold | IC50 (LNCaP-WT cells; 72 h): 47.1 µM | IC50 (LNCaP-WT cells; 96 h): 32.7 µM | p21 protein level (immunoblot, DMSO = 1.0) [2]: 2.0 ± 0.6 | p21 protein level (immunoblot, DMSO = 1.0) [3]: 1.7 ± 0.6 | p27 protein level (immunoblot, DMSO = 1.0) [4]: 1.5 ± 0.7 | IC50 (DU145 cells; DU-145, 72 h): ~40 µM | IC50 (DU145 cells; DU-145, 96 h): 32.5 µM | p21 protein level (immunoblot, DMSO = 1.0) [5]: 1.1 ± 0.0 | Cell cycle distribution G1 (IMR90 cells): 68.4 and 77.0 | Cell cycle distribution G2 (IMR90 cells): 15.3 and 14.1 | Cell cycle distribution S (IMR90 cells): 16.2 and 8.9 | p27 protein level (immunoblot, DMSO = 1.0) [6]: 1.1 ± 0.1 | p27 protein level (immunoblot, DMSO = 1.0) [7]: 1.9 ± 0.5 | Cell cycle distribution G1 (LNCaP cells): 84.5 and 83.6 | Cell cycle distribution G2 (LNCaP cells): 7.6 and 6.6 | Cell cycle distribution S (LNCaP cells): 6.6 and 8.5 | IC50 (PC3 cells [8]; PC-3, 72 h): ~80 µM | IC50 (PC3 cells [8]; PC-3, 96 h): 80 µM | p27 protein level (immunoblot, DMSO = 1.0) [9]: 1.1 ± 0.2 | p21 protein level (immunoblot, DMSO = 1.0) [10]: 1.1 ± 0.3 | Cell cycle distribution G1 (PC3 cells [11]): 48.6 and 57.5 | Cell cycle distribution G2 (PC3 cells [11]): 29.7 and 27.8 | Cell cycle distribution S (PC3 cells [11]): 20.4 and 13.6 | IC50 (LNCaP-S14 cells [12]): 4.63 µM | p27 half-life [13]: No effect | p27 protein level (immunoblot, DMSO = 1.0) [14]: 1.3 ± 0.6 | IC50 at 72 h ([15]; IMR90, 0.01 - 40 μM): > 20 µM | IC50 at 72 h ([15]; IMR90, 0.01 - 80 μM): 40 to 80 µM | IC50 at 96 h ([15]; IMR90, 0.01 - 80 μM, 96 h): 40 to 80 µM | Cell cycle distribution G1 (LNCaP-S14 cells [16]): 84.8 and 86.8 | Cell cycle distribution G2 (LNCaP-S14 cells [16]): 6.3 and 3.5 | Cell cycle distribution S (LNCaP-S14 cells [16]): 7.2 and 6.9 | p21 protein level (immunoblot, DMSO = 1.0) [17]: 1.1 ± 0.2 | p21 protein level (immunoblot, DMSO = 1.0) [18]: 1.1 ± 0.5

Reference: article PMC3025922 (BMC Biology, 2010)
